# Laboratory results reported in article PMC5468247, “Development of a selective agonist for relaxin family peptide receptor 3” (Scientific Reports, 2017).
# Experiments:
# human RXFP3 [1] = target: T1, human RXFP3 (Homo sapiens, UniProt Q9NSD7); assay: Receptor binding assay, NanoLuc-conjugated R3/I5 tracer competition; details: compared with R3/I5
# T1 construct: expressed in transfected cells; host or cells: HEK293T
# T1 sequence (Q9NSD7 1-469): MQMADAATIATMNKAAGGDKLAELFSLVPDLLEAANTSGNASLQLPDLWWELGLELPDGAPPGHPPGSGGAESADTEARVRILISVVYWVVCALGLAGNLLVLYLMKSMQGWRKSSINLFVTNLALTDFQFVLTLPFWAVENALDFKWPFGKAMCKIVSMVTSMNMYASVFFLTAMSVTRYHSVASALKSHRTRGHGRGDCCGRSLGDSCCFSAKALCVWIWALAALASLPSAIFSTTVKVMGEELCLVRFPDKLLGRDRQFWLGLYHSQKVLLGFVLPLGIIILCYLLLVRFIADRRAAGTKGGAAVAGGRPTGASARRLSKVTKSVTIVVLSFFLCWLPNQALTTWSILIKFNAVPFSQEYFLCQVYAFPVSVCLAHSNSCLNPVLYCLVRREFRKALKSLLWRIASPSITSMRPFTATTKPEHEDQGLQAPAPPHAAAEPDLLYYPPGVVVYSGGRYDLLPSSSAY
# Protocol: (§1) Specific binding data are expressed as means ± SE (n = 3) and fitted to sigmoidal curves using SigmaPlot 10.0 software.
# (§2) Briefly, HEK293T cells were transiently transfected with an expression construct of human RXFP3 or human RXFP4. On the next day, transfected cells were trypsinised, seeded into 96-well plates, and continuously cultured for 24–36 h to ~100% confluence. […] After incubation at 21 °C for 2 h, binding solution was removed and cells were washed twice with ice-cold phosphate-buffered saline (200 μl/well for each wash). Thereafter, cells were lysed by lysis solution (100 μl/well, Promega, Madison, WI, USA) and cell lysates were transferred to a white opaque 96-well plate (50 μl/well). After mixing with freshly diluted substrate (50 μl/well), bioluminescence was immediately measured on a SpectraMax M5 plate reader (Molecular Devices, Sunnyvale, CA, USA) in luminescence mode. […] The calculated specific binding data were expressed as means ± standard error (SE; n = 3) and fitted to sigmoidal curves using SigmaPlot 10.0 software.
# human RXFP4 [2] = target: T2, human RXFP4 (Homo sapiens, UniProt Q8TDU9); assay: as above; details: compared with R3/I5
# T2 construct: expressed in transfected cells; host or cells: HEK293T
# Protocol: as §1, §2
# human RXFP3 [3] = target: T1, human RXFP3; assay: Receptor activation assay, CRE-controlled NanoLuc reporter; type: cell-based; details: CRE-NanoLuc reporter, human RXFP3; for activation potency towards RXFP3, in words: compared with R3/I5
# Source text: (§3) HEK293T cells transiently cotransfected with a CRE-controlled NanoLuc reporter vector and the expression construct of human RXFP3 or human RXFP4 were used for activation assays. The measured bioluminescence data are expressed as means ± SE (n = 3) and fitted to sigmoidal or linear curves using SigmaPlot 10.0.
# (§4) Briefly, HEK293T cells were transiently cotransfected with the NanoLuc reporter vector pNL1.2/CRE and the expression construct of human RXFP3 or human RXFP4. On the next day, transfected cells were trypsinised, seeded into 96-well plates, and continuously cultured for 24–36 h to ~90% confluence. To initiate activation assays, medium was removed and activation solution (serum-free DMEM medium plus 1% bovine serum albumin) containing 1.0 μM of forskolin and various concentrations of peptide was added (100 μl/well). After continuous culturing at 37 °C for 4 h, activation solution was removed and cells were lysed with lysis solution (100 μl/well, Promega). Cell lysates were then transferred to a white opaque 96-well plate (50 μl/well), mixed with freshly diluted substrate (50 μl/well), and bioluminescence was immediately measured on a SpectraMax M5 plate reader (Molecular Devices) in luminescence mode. The measured data were expressed as means ± SE (n = 3) and fitted to sigmoidal or linear curves using SigmaPlot 10.0 software.
# human RXFP4 [4] = target: T2, human RXFP4; assay: as above; type: cell-based; details: for activation potency towards RXFP4, in words: compared with R3/I5; for fold lower activation potency towards RXFP4 compared with R3/I5: relative to R3/I5
# Source text: as §3, §4
# T2 sequence (Q8TDU9 whole entry): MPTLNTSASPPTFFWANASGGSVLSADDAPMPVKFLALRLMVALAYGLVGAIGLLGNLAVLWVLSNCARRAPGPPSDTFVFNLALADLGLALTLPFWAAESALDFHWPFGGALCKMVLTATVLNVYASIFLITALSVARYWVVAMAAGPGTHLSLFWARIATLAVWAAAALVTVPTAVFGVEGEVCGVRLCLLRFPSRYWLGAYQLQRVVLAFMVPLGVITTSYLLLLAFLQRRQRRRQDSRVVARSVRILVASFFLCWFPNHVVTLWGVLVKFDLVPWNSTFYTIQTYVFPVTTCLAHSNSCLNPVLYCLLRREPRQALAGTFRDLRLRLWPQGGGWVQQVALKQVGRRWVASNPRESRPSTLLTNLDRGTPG
"activation potency towards RXFP3, in words (human RXFP3 [3])","activation potency towards RXFP4, in words (human RXFP4 [4])",Structure (SMILES),"binding potency towards RXFP3, in words (human RXFP3 [1])","binding potency towards RXFP4, in words (human RXFP4 [2])",fold lower activation potency towards RXFP4 compared with R3/I5 (human RXFP4 [4]),fold lower activation potency towards RXFP3 compared with R3/I5 (human RXFP3 [3]; relative to R3/I5)
retained full activation potency,retained full activation potency,CC[C@H](C)[C@@H]1NC(=O)[C@H](Cc2ccccc2)NC(=O)[C@H](CCC(=O)O)NC(=O)[C@H](CCCNC(=N)N)NC(=O)CNC(=O)[C@@H](NC(=O)[C@H](CC(C)C)NC(=O)[C@H](CCCNC(=N)N)NC(=O)[C@@H](NC(=O)CNC(=O)[C@H](Cc2ccc(O)cc2)NC(=O)[C@@H]2CCCN2C(=O)[C@H](C)NC(=O)[C@H](C)NC(=O)[C@H](CCCNC(=N)N)NC(=O)[C@@H]2CCC(=O)N2)C(C)C)CSSC[C@@H]2NC(=O)[C@@H](NC(=O)[C@H](CC(C)C)NC(=O)[C@@H](NC(=O)[C@H](CCC(N)=O)NC(=O)[C@H](CC(C)C)NC(=O)[C@H](CC(=O)O)NC(=O)[C@H](CCC(N)=O)NC(=O)[C@H](CCCNC(=N)N)NC(=O)[C@H](CO)NC(=O)[C@H](CCCNC(=N)N)NC(=O)[C@H](CCCNC(=N)N)NC(=O)[C@H](CO)NC(=O)[C@@H](N)CCCNC(=N)N)[C@@H](C)O)CSSC[C@H](NC(=O)CNC(=O)[C@H](CC(=O)O)NC(=O)[C@H]([C@@H](C)O)NC2=O)C(=O)N[C@@H](CO)C(=O)N[C@@H](CCSC)C(=O)N[C@@H]([C@@H](C)O)C(=O)N[C@@H](CC(=O)O)C(=O)N[C@@H](CC(C)C)C(=O)N[C@@H](CO)C(=O)N[C@@H](C)C(=O)N[C@@H](CC(C)C)C(=O)N[C@H](C(=O)O)CSSC[C@@H](C(=O)NCC(=O)N[C@@H](C)C(=O)N[C@@H](CO)C(=O)N[C@@H](CCCNC(=N)N)C(=O)N[C@@H](Cc2c[nH]c3ccccc23)C(=O)O)NC(=O)[C@H]([C@@H](C)O)NC(=O)[C@H](Cc2ccccc2)NC(=O)[C@H]([C@@H](C)CC)NC(=O)[C@H](C(C)C)NC(=O)[C@H](C)NC(=O)[C@H](CCCNC(=N)N)NC1=O [[G(B24)A]R3/I5],retained full binding potency,retained full binding potency,–,–
lost all activation potency,lost all activation potency,CC[C@H](C)[C@@H]1NC(=O)[C@H](Cc2ccccc2)NC(=O)[C@H](CCC(=O)O)NC(=O)[C@H](CCCNC(=N)N)NC(=O)CNC(=O)[C@@H](NC(=O)[C@H](CC(C)C)NC(=O)[C@H](CCCNC(=N)N)NC(=O)[C@@H](NC(=O)CNC(=O)[C@H](Cc2ccc(O)cc2)NC(=O)[C@@H]2CCCN2C(=O)[C@H](C)NC(=O)[C@H](C)NC(=O)[C@H](CCCNC(=N)N)NC(=O)[C@@H]2CCC(=O)N2)C(C)C)CSSC[C@@H]2NC(=O)[C@@H](NC(=O)[C@H](CC(C)C)NC(=O)[C@@H](NC(=O)[C@H](CCC(N)=O)NC(=O)[C@H](CC(C)C)NC(=O)[C@H](CC(=O)O)NC(=O)[C@H](CCC(N)=O)NC(=O)[C@H](CCCNC(=N)N)NC(=O)[C@H](CO)NC(=O)[C@H](CCCNC(=N)N)NC(=O)[C@H](CCCNC(=N)N)NC(=O)[C@H](CO)NC(=O)[C@@H](N)CCCNC(=N)N)[C@@H](C)O)CSSC[C@H](NC(=O)CNC(=O)[C@H](CC(=O)O)NC(=O)[C@H]([C@@H](C)O)NC2=O)C(=O)N[C@@H](CO)C(=O)N[C@@H](CCSC)C(=O)N[C@@H]([C@@H](C)O)C(=O)N[C@@H](CC(=O)O)C(=O)N[C@@H](CC(C)C)C(=O)N[C@@H](CO)C(=O)N[C@@H](C)C(=O)N[C@@H](CC(C)C)C(=O)N[C@H](C(=O)O)CSSC[C@@H](C(=O)NCC(=O)N[C@@H](CCC(=O)O)C(=O)N[C@@H](CO)C(=O)N[C@@H](CCCNC(=N)N)C(=O)N[C@@H](Cc2c[nH]c3ccccc23)C(=O)O)NC(=O)[C@H]([C@@H](C)O)NC(=O)[C@H](Cc2ccccc2)NC(=O)[C@H]([C@@H](C)CC)NC(=O)[C@H](C(C)C)NC(=O)[C@H](C)NC(=O)[C@H](CCCNC(=N)N)NC1=O [[G(B24)E]R3/I5],retained low binding potency,retained low binding potency,–,–
–,–,CC[C@H](C)[C@@H]1NC(=O)[C@H](Cc2ccccc2)NC(=O)[C@H](CCC(=O)O)NC(=O)[C@H](CCCNC(=N)N)NC(=O)CNC(=O)[C@@H](NC(=O)[C@H](CC(C)C)NC(=O)[C@H](CCCNC(=N)N)NC(=O)[C@@H](NC(=O)CNC(=O)[C@H](Cc2ccc(O)cc2)NC(=O)[C@@H]2CCCN2C(=O)[C@H](C)NC(=O)[C@H](C)NC(=O)[C@H](CCCNC(=N)N)NC(=O)[C@@H]2CCC(=O)N2)C(C)C)CSSC[C@@H]2NC(=O)[C@@H](NC(=O)[C@H](CC(C)C)NC(=O)[C@@H](NC(=O)[C@H](CCC(N)=O)NC(=O)[C@H](CC(C)C)NC(=O)[C@H](CC(=O)O)NC(=O)[C@H](CCC(N)=O)NC(=O)[C@H](CCCNC(=N)N)NC(=O)[C@H](CO)NC(=O)[C@H](CCCNC(=N)N)NC(=O)[C@H](CCCNC(=N)N)NC(=O)[C@H](CO)NC(=O)[C@@H](N)CCCNC(=N)N)[C@@H](C)O)CSSC[C@H](NC(=O)CNC(=O)[C@H](CC(=O)O)NC(=O)[C@H]([C@@H](C)O)NC2=O)C(=O)N[C@@H](CO)C(=O)N[C@@H](CCSC)C(=O)N[C@@H]([C@@H](C)O)C(=O)N[C@@H](CC(=O)O)C(=O)N[C@@H](CC(C)C)C(=O)N[C@@H](CO)C(=O)N[C@@H](C)C(=O)N[C@@H](CC(C)C)C(=O)N[C@H](C(=O)O)CSSC[C@@H](C(=O)NCC(=O)N[C@@H](CO)C(=O)N[C@@H](CCCNC(=N)N)C(=O)N[C@@H](Cc2c[nH]c3ccccc23)C(=O)O)NC(=O)[C@H]([C@@H](C)O)NC(=O)[C@H](Cc2ccccc2)NC(=O)[C@H]([C@@H](C)CC)NC(=O)[C@H](C(C)C)NC(=O)[C@H](C)NC(=O)[C@H](CCCNC(=N)N)NC1=O [[∆B23]R3/I5],retained considerable binding potency,retained considerable binding potency,~ 300 fold,~ 300 fold

Structure (SMILES),"activation potency towards RXFP3, in words (human RXFP3 [3])","activation potency towards RXFP4, in words (human RXFP4 [4])","binding potency towards RXFP3, in words (human RXFP3 [1])","binding potency towards RXFP4, in words (human RXFP4 [2])",fold lower activation potency towards RXFP4 compared with R3/I5 (human RXFP4 [4]),fold lower activation potency towards RXFP3 compared with R3/I5 (human RXFP3 [3]; relative to R3/I5)
CC[C@H](C)[C@@H]1NC(=O)[C@H](Cc2ccccc2)NC(=O)[C@H](CCC(=O)O)NC(=O)[C@H](CCCNC(=N)N)NC(=O)CNC(=O)[C@@H](NC(=O)[C@H](CC(C)C)NC(=O)[C@H](CCCNC(=N)N)NC(=O)[C@@H](NC(=O)CNC(=O)[C@H](Cc2ccc(O)cc2)NC(=O)[C@@H]2CCCN2C(=O)[C@H](C)NC(=O)[C@H](C)NC(=O)[C@H](CCCNC(=N)N)NC(=O)[C@@H]2CCC(=O)N2)C(C)C)CSSC[C@@H]2NC(=O)[C@@H](NC(=O)[C@H](CC(C)C)NC(=O)[C@@H](NC(=O)[C@H](CCC(N)=O)NC(=O)[C@H](CC(C)C)NC(=O)[C@H](CC(=O)O)NC(=O)[C@H](CCC(N)=O)NC(=O)[C@H](CCCNC(=N)N)NC(=O)[C@H](CO)NC(=O)[C@H](CCCNC(=N)N)NC(=O)[C@H](CCCNC(=N)N)NC(=O)[C@H](CO)NC(=O)[C@@H](N)CCCNC(=N)N)[C@@H](C)O)CSSC[C@H](NC(=O)CNC(=O)[C@H](CC(=O)O)NC(=O)[C@H]([C@@H](C)O)NC2=O)C(=O)N[C@@H](CO)C(=O)N[C@@H](CCSC)C(=O)N[C@@H]([C@@H](C)O)C(=O)N[C@@H](CC(=O)O)C(=O)N[C@@H](CC(C)C)C(=O)N[C@@H](CO)C(=O)N[C@@H](C)C(=O)N[C@@H](CC(C)C)C(=O)N[C@H](C(=O)O)CSSC[C@@H](C(=O)N[C@@H](C)C(=O)NCC(=O)N[C@@H](CO)C(=O)N[C@@H](CCCNC(=N)N)C(=O)N[C@@H](Cc2c[nH]c3ccccc23)C(=O)O)NC(=O)[C@H]([C@@H](C)O)NC(=O)[C@H](Cc2ccccc2)NC(=O)[C@H]([C@@H](C)CC)NC(=O)[C@H](C(C)C)NC(=O)[C@H](C)NC(=O)[C@H](CCCNC(=N)N)NC1=O [[G(B23)A]R3/I5],lost all activation potency,–,retained considerable binding potency,retained high binding potency,~ 100 fold,–
